The text below walks through data of patent US6703385B1, “Tricyclic compounds having sPLA2-inhibitory activities” (Shionogi & Co., Ltd., priority 1999, dated 2004).

The target of one data set is T1, type II sPLA2 (Homo sapiens, UniProt P14555).
T1 sequence (P14555 21-144): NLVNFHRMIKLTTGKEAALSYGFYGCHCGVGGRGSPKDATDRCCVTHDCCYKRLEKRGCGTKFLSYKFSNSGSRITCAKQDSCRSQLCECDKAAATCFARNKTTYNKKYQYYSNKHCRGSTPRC
Briefly: Inhibition test of human secretory phospholipase A2, chromogenic assay, type II enzyme. Format: biochemical. Conditions: Inhibitory activity of type II sPLA2. The text has this:
In order to identify and evaluate an inhibitor of recombinant human secretory phospholipase A2, the following chromogenic assay is utilized. The assay herein has been applied for high volume screening wherein 96 well microtiterplate is used. A general explanation for such assay is described in “Analysis of Human Synovial Fluid Phospholipase A2 on Short Chain Phosphatidylcholine-Mixed Micelles: Development of a Spectrophotometric Assay Suitable for a Microtiterplate Reader” (Analytical Biochemistry, 204, pp 190-197, 1992 by Laure. J. Reynolds. Lori L. Hughes and Edward A. Dennis: the disclosure of which is incorporated herein for reference.
Type II enzyme: 1 mg of sPLA2 is dissolved in 1 ml of an enzyme buffer. Thereafter, the solution is maintained at 4° C. In the assay, 5 μl of the solution is diluted with 1995 μl of the reaction buffer to be used.
1) 0.106 ml of the substrate solution is put in a centrifugal tube, and nitrogen gas is jetted to remove the solvent. 0.54 ml of Triton-X 100 is added thereto, the mixture is stirred, thereafter it is sonified in a bath type sonification to dissolve. To the resulting product are added 17.8 ml of the reaction buffer and 0.46 ml of DTNB, and 0.18 ml each of the admixture is poured to wells of the 96 well microtiterplate.
2) 10 μl of a test compound (or solvent blank) are added in accordance with alignment of plates which has been previously set.
3) Incubation is effected at 40° C. for 15 minutes.
4) 90 ng/well in case of human type I enzyme, 50 ng/well in case of human type II enzyme, 40 μl/well in case of human type V enzyme, 15 μl/well in case of human type X enzyme were reacted.
5) Changes in absorbancy for 30 minutes for humane type I, type II, and type X enzyme and for 45 min for human type V enzyme, are measured by a plate reader, and inhibition activity was calculated (OD: 405 nm).
6) IC50 was determined by plotting log concentration with respect to inhibition values within 10% to 90% inhibiting range.

In general, IC50 refers to the concentration that inhibits the measured activity by half. A low value points to inhibition by little substance. Consider `NC(=O)C(=O)c1c2c(n3ccnc(OCC(=O)O)c13)C(c1ccccc1)=CCC2` [Compound I-14], for which it took 34 nM to reach half-maximal inhibition at type II sPLA2 (IC50).
The term melting point denotes the temperature of the solid-liquid transition. For `NC(=O)C(=O)c1c2c(n3cccc(OCC(=O)O)c13)C(c1ccccc1)=CCC2` [Compound I-2], the melting point is 228 to 230 °C (dec.). At type II sPLA2, this molecule returned an IC50 of 45 nM.
`NC(=O)C(=O)c1c2scc(-c3ccccc3)c2n2cccc(OCC(=O)O)c12` [Compound I-12] had an IC50 against type II sPLA2 of 178 nM.
As to `COC(=O)COc1cccn2c3c(c(C(=O)C(N)=O)c12)CCCC3c1ccccc1` (stereo not drawn) [Compound I-3], the melting point was 198 to 199 °C. Further, 1590 nM corresponded to half-maximal inhibition against type II sPLA2 (IC50).
At type II sPLA2, `CC(=O)N1CCc2c(C(=O)C(N)=O)c3c(OCC(=O)O)cccn3c2C1c1ccccc1` (stereo not drawn) [Compound I-6] gave an IC50 of 4570 nM.
The same measure, in the same setting: under `NC(=O)C(=O)c1c2c(n3cccc(OCC(=O)O)c13)C(c1ccccc1)N(C(=O)C(F)(F)F)CC2` (stereo not drawn) [Compound I-8] stands 262 nM.
As to `COC(=O)COc1cccn2c3c(c(C(=O)C(N)=O)c12)CCC=C3c1ccccc1` [Compound I-1], the melting point was 225 to 227 °C (dec.). The molecule further gave an IC50 against type II sPLA2 of 789 nM.
Regarding `NC(=O)C(=O)c1c2c(n3cccc(OCC(=O)O)c13)C(c1ccccc1)CCC2` (stereo not drawn) [Compound I-4], the midpoint of inhibition at type II sPLA2, the IC50, lay at 54 nM.
Same read-out and setting: next, `COC(=O)COc1cccn2c1c(C(=O)C(N)=O)c1scc(-c3ccccc3)c12` [Compound I-11]: 5680 nM.
